Read-outs that look alike come from different tables or passages of the source.
Key:
[1] = molecular target: T1, hA3AR (Homo sapiens, UniProt P0DMS8); experiment: Radioligand binding competition, [3H]NECA, membranes from HeLa-A3 cells; conditions: 1 μM, [3H]NECA, human HeLa cells, n = 2
T1 construct: expressed in transfected cells; host or cells: HeLa (HeLa-A3) cell membranes
T1 sequence (P0DMS8 1-318): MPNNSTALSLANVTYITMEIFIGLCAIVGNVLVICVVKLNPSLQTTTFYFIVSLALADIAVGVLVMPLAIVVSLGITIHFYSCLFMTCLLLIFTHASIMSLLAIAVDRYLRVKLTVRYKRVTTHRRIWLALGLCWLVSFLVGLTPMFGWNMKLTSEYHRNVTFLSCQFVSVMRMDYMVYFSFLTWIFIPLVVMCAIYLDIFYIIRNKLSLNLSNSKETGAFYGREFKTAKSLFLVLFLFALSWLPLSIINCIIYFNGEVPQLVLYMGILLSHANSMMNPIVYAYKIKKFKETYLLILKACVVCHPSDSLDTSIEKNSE
Protocol: (§1) All ligands reported in Tables 1–5 were obtained and tested as racemic mixtures. The whole set was evaluated in silico with a combination of a Rdkit[37] PAINS filter and Instant JChem from Chemaxon (https://www.chemaxon.com), to rule out the possibility that these ligands can be promiscuous pan-assay interference compounds (PAINS) and to assess their bioavailability, respectively. […] The stereoisomers of selected compounds were obtained by chiral resolution and tested at the four human AR subtypes in their enantiopure forms (Table 6).
(§2) A brief description is given below. […] Non-specific binding was determined in the presence of 10 μM R-PIA. The reaction mixture was incubated at 25 °C for 60 min. […] The reaction mixture was incubated at 25 °C for 30 min. […] The reaction mixture was incubated at 25 °C for 30 min. […] Non-specific binding was determined in the presence of 100 μM R-PIA. […] After the incubation time, membranes were washed and filtered and radioactivity was detected in a MicroBeta TriLux reader (PerkinElmer).

[2] = molecular target: T2, hA2BAR (Homo sapiens, UniProt P29275); experiment: Radioligand binding competition, [3H]DPCPX, membranes from HEK-293-A2B cells; design: Exp. dG: unit not given here; conditions: for % at 1 μM hA2B (percentage displacement of specific binding): [3H]DPCPX, human HEK-293 cells, n = 2; for Exp. dG: experimental binding free energy, Supplementary Table S3, unit not given (errors in kcal/mol)
T2 construct: host or cells: HEK-293 (HEK-293-A2B) cell membranes
T2 sequence (P29275 1-332): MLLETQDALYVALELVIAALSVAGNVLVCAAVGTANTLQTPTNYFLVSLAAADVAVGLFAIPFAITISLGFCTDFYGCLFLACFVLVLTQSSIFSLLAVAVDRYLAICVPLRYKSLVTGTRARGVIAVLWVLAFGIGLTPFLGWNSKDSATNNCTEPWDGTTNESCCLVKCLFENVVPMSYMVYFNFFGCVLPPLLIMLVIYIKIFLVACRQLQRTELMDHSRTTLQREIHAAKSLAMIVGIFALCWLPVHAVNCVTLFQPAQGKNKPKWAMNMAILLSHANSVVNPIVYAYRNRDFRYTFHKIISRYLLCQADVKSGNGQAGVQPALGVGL
Protocol: as §1, §2

[3] = molecular target: T3, hA1AR (Homo sapiens, UniProt P30542); experiment: Radioligand binding competition, [3H]DPCPX, membranes from CHO-A1 cells; conditions: 1 μM, [3H]DPCPX, human CHO cells, n = 2
T3 sequence (P30542 1-326): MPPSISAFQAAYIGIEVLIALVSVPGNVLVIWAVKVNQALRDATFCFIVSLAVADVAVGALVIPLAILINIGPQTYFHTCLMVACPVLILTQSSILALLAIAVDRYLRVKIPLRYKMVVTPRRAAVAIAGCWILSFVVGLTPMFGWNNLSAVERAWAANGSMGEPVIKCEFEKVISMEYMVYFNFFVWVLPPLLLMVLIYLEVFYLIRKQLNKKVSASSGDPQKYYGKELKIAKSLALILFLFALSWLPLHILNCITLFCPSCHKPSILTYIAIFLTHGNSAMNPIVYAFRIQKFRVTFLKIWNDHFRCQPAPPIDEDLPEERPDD
Protocol: as §1, §2

[4] = molecular target: T4, hA2AAR (Homo sapiens, UniProt P29274); experiment: Radioligand binding competition, [3H]ZM241385, membranes from HeLa-A2A cells; conditions: for % at 1 μM hA2A (percentage displacement of specific binding): [3H]ZM241385, human HeLa cells, n = 2
T4 construct: expressed in transfected cells; host or cells: HeLa (HeLa-A2A) cell membranes
T4 sequence (P29274 whole entry): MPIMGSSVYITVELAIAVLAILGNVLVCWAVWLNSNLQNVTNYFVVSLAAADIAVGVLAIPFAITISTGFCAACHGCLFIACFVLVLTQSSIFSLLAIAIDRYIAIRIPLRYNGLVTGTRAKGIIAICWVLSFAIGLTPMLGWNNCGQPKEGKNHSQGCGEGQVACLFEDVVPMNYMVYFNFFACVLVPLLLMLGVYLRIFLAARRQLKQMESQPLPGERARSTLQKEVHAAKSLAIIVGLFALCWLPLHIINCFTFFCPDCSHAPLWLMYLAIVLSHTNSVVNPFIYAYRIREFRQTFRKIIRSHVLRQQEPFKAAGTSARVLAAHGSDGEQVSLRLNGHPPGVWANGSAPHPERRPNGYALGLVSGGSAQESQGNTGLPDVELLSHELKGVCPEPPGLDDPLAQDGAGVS
Protocol: as §1, §2

[5] = displacement of specific [3H]DPCPX binding in human HEK-293 cells, n = 3, read-out: Ki hA2B

Structure (SMILES)	% at 1 μM hA3 (percentage displacement of specific binding) [1] [%]	% at 1 μM hA2B (percentage displacement of specific binding) [2] [%]	% at 1 μM hA1 (percentage displacement of specific binding) [3] [%]	% at 1 μM hA2A (percentage displacement of specific binding) [4] [%]	Ki [2, 5] [nM]	Ki ([2]; supplementary CSV, no unit printed (nM in Tables 2-5), read-out: Ki_hA2B) [nM]	Exp. dG [2]	Ki ([4]; displacement of specific [3H]ZM241385 binding in human HeLa cells, n = 3, read-out: Ki hA2A) [nM]	Ki ([2]; read-out: Ki hA2B) [nM]
CC1=C(C(=O)OC(C)C)C(c2cccs2)n2c(nc3ccc(Cl)cc32)N1 (stereo not shown) [15n]	1	7	1	3					
CC1=C(C(=O)OC(C)C)C(c2ccsc2)n2c(nc3cc(Cl)c(Cl)cc32)N1 (stereo not shown) [14p]	6		2	1	359 ± 4				
CC1=C(C(=O)OC(C)C)C(c2cccs2)n2c(nc3cc(Br)ccc32)N1 (stereo not shown) [16v]	1		1	1	115 ± 3	115			
CC1=C(C(=O)OC(C)C)C(c2cccs2)n2c(nc3cc(F)ccc32)N1 (stereo not shown) [16f]	7		2	1	668 ± 6		-8.419		
CCOC(=O)C1=C(C)Nc2nc3cc(Br)ccc3n2C1c1ccsc1 (stereo not shown) [16w]	1		1	9	537 ± 8				
CC1=C(C(=O)OC(C)C)[C@@H](c2ccoc2)n2c(nc3cc(Cl)ccc32)N1 [(R)-16l]	24		37		2.6 ± 0.3			96.3 ± 6	
CCOC(=O)C1=C(C)Nc2nc3ccc(Cl)cc3n2C1c1ccoc1 (stereo not shown) [15k]	3		22	30	47.3 ± 1.9		-9.987		~45
CCOC(=O)C1=C(C)Nc2nc3ccc(Cl)cc3n2C1c1cccs1 (stereo not shown) [15m]	1	1	2	3					
CCOC(=O)C1=C(C)Nc2nc3cc(Cl)ccc3n2[C@@H]1c1cocn1 [(S)-18c]	6		22	17	3.39 ± 0.2				
CCOC(=O)C1=C(C)Nc2nc3cc(Cl)ccc3n2C1c1cccs1 (stereo not shown) [16m]	1	41	3	2					
CCOC(=O)C1=C(C)Nc2nc3ccc(Br)cc3n2C1c1ccco1 (stereo not shown) [15q]	5	48	22	21					
CCOC(=O)C1=C(C)Nc2nc3ccc(Cl)cc3n2C1c1ccsc1 (stereo not shown) [15o]	3	50	4	2					
